Measurements: patent US20240207292A1, “BORONIC ACID COMPOUNDS, COMPOSITIONS AND METHODS” (Trustees of Tufts College, priority 2021, published 2024)

Test: Stability of 6555 with sulfur-containing and other stabilizers, 50 mM AAPH at 80° C. for 30 mins (Tables 7-9)
Format: physicochemical
Conditions: for 6555 Remaining (%): 50 mM AAPH, 80° C., 0.5 hr, (+) mode; for 6555 Remain (%): AAPH 80° C. 30 mins
Description: The effect of specified sulfur-containing compounds and other stabilizer compounds (including non-sulfur-containing stabilizer compounds) and mixtures of sulfur-containing compounds and non-sulfur-containing stabilizer compounds with the boronic acid compound 6555 (structure shown above) at various pH values.

C[C@@H](NC(=O)c1ccc(CNC(=O)CN2CCN(CC(=O)O)CCN(CC(=O)O)CCN(CC(=O)O)CC2)cc1)C(=O)N1CCC[C@H]1B(O)O [compound 6555, DOTA-aminomethyl-Bz-D-Ala-boroPro]
6555 Remaining (%) (NAM 5 mM, sodium metabisulfite 5 mM, pH 4.3): 88.8% | 6555 Remaining (%) (NAM 25 mM, pH 4.0): 85.9% | 6555 Remaining (%) (no stabilizer, pH 4.6): 55.8% | 6555 Remaining (%) (sodium ascorbate 2.5 mM, sodium gentisate 1 mM, Acetone sodium bisulfite (2.5 mM), pH 4.6): 73.1% | 6555 Remaining (%) (sodium ascorbate 2.5 mM, sodium gentisate 1 mM, Acetone sodium bisulfite (25 mM), pH 4.6): 94.0% | 6555 Remaining (%) (sodium ascorbate 2.5 mM, sodium gentisate 1 mM, D-mannitol (25 mM), pH 4.5): 15.5% | 6555 Remaining (%) (sodium ascorbate 2.5 mM, sodium gentisate 1 mM, Disodium hydrosulfite (25 mM), pH 4.3): 94.1% | 6555 Remaining (%) (sodium ascorbate 2.5 mM, sodium gentisate 1 mM, MSM(dimethyl sulfone) (25 mM), pH 4.5): 8.2% | 6555 Remaining (%) (sodium ascorbate 2.5 mM, sodium gentisate 1 mM, N-Acetyl-L-phenylalanine (25 mM), pH 4.0): 20.1% | 6555 Remaining (%) (sodium ascorbate 2.5 mM, sodium gentisate 1 mM, N-Acetyl-L-tyrosine (25 mM), pH 4.0): 13.6% | 6555 Remaining (%) (sodium ascorbate 2.5 mM, sodium gentisate 1 mM, NAC (25 mM), pH 4.1): 31.4% | 6555 Remaining (%) (sodium ascorbate 2.5 mM, sodium gentisate 1 mM, NAM 2.5 mM, sodium metabisulfite 2.5 mM, pH 4.5): 94.8% | 6555 Remaining (%) (sodium ascorbate 2.5 mM, sodium gentisate 1 mM, NAM 2.5 mM, pH 4.5): 53.3% | 6555 Remaining (%) (sodium ascorbate 2.5 mM, sodium gentisate 1 mM, NAM 10 mM, sodium metabisulfite 2.5 mM, pH 4.0): 93.2% | 6555 Remaining (%) (sodium ascorbate 2.5 mM, sodium gentisate 1 mM, NAM 25 mM, sodium metabisulfite 2.5 mM, pH 4.0): 92.2% | 6555 Remaining (%) (sodium ascorbate 2.5 mM, sodium gentisate 1 mM, NAM 25 mM, pH 4.0): 90.8% | 6555 Remaining (%) (sodium ascorbate 2.5 mM, sodium gentisate 1 mM, Potassium metabisulfite (2.5 mM), pH 4.4): 93.7% | 6555 Remaining (%) (sodium ascorbate 2.5 mM, sodium gentisate 1 mM, Potassium metabisulfite (25 mM), pH 4.5): 94.1% | 6555 Remaining (%) (sodium ascorbate 2.5 mM, sodium gentisate 1 mM, Sodium L-Glutamate monohydrate (concentration cut off), pH 4.7): 8.2% | 6555 Remaining (%) (sodium ascorbate 2.5 mM, sodium gentisate 1 mM, Sodium formaldehydesulfoxylate di (concentration cut off), pH 4.4): 91.7% | 6555 Remaining (%) (sodium ascorbate 2.5 mM, sodium gentisate 1 mM, Sodium formaldehydesulfoxylate di (concentration cut off, second entry), pH 4.5): 58.0% | 6555 Remaining (%) (sodium ascorbate 2.5 mM, sodium gentisate 1 mM, Sodium sulfite (2.5 mM), pH 4.5): 67.9% | 6555 Remaining (%) (sodium ascorbate 2.5 mM, sodium gentisate 1 mM, Sodium sulfite (5 mM), pH 4.6): 90.3% | 6555 Remaining (%) (sodium ascorbate 2.5 mM, sodium gentisate 1 mM, Sodium sulfite (10 mM), pH 4.8): 93.8% | 6555 Remaining (%) (sodium ascorbate 2.5 mM, sodium gentisate 1 mM, Sodium sulfite (25 mM), pH 5.1): 94.1% | 6555 Remaining (%) (sodium ascorbate 2.5 mM, sodium gentisate 1 mM, Thiourea (25 mM), pH 4.5): 84.1% | 6555 Remaining (%) (sodium ascorbate 2.5 mM, sodium gentisate 1 mM, disodium hydrosulfite 1 mM, pH 4.5): 47.4% | 6555 Remaining (%) (sodium ascorbate 2.5 mM, sodium gentisate 1 mM, disodium hydrosulfite 2.5 mM, pH 4.4): 91.7% | 6555 Remaining (%) (sodium ascorbate 2.5 mM, sodium gentisate 1 mM, disodium hydrosulfite 5.0 mM, pH 4.5): 94.3% | 6555 Remaining (%) (sodium ascorbate 2.5 mM, sodium gentisate 1 mM, disodium hydrosulfite 10.0 mM, pH 4.5): 94.1% | 6555 Remaining (%) (sodium ascorbate 2.5 mM, sodium gentisate 1 mM, disodium hydrosulfite 40.0 mM, pH 4.0): 94.6% | 6555 Remaining (%) (sodium ascorbate 2.5 mM, sodium gentisate 1 mM, sodium metabisulfite 1 mM, pH 4.5): 71.1% | 6555 Remaining (%) (sodium ascorbate 2.5 mM, sodium gentisate 1 mM, sodium metabisulfite 2.5 mM, pH 4.5): 93.4% | 6555 Remaining (%) (sodium ascorbate 2.5 mM, sodium gentisate 1 mM, sodium metabisulfite 25 mM, pH 4.4): 93.8% | 6555 Remaining (%) (sodium ascorbate 2.5 mM, sodium gentisate 1 mM, pH 4.6): 30.8% | 6555 Remaining (%) (sodium ascorbate 2.5 mM, sodium gentisate 1 mM, pH 5.1): 16.7% | 6555 Remaining (%) (sodium ascorbate 5 mM, sodium gentisate 2 mM, NAM 5 mM, disodium hydrosulfite 5 mM, pH 4.5): 95.7% | 6555 Remaining (%) (sodium ascorbate 5 mM, sodium gentisate 2 mM, NAM 5 mM, sodium metabisulfite 5 mM, pH 4.5): 95.8% | 6555 Remaining (%) (sodium ascorbate 5 mM, sodium gentisate 2 mM, NAM 5 mM, pH 4.5): 66.5% | 6555 Remaining (%) (sodium ascorbate 5 mM, sodium gentisate 2 mM, sodium metabisulfite 5 mM, disodium hydrosulfite 5 mM, pH 4.4): 95.3% | 6555 Remaining (%) (sodium ascorbate 5 mM, sodium gentisate 2 mM, sodium metabisulfite 5 mM, pH 4.5): 95.6% | 6555 Remain (%) (Sodium ascorbate (2.5 mM) +, Sodium gentisate (1 mM) +, Stabilizer (2.5 mM) Sodium sulfite, pH 5.1, SID 90517): 94.1% | 6555 Remain (%) (ascorbate (2.5 mM) +, gentisate (1 mM) +, Sodium hydrosulfite 2.5 mM, pH 4.4, SID 90537): 91.7% | 6555 Remain (%) (ascorbate (2.5 mM) +, gentisate (1 mM) +, Sodium hydrosulfite 5.0 mM, pH 4.5, SID 90542): 94.3% | 6555 Remain (%) (ascorbate (2.5 mM) +, gentisate (1 mM) +, Sodium hydrosulfite 10.0 mM, pH 4.5, SID 90532): 94.1% | 6555 Remain (%) (ascorbate (2.5 mM) +, gentisate (1 mM) +, Sodium hydrosulfite 25.0 mM, pH 4.3, SID 90539): 94.1% | 6555 Remain (%) (ascorbate (2.5 mM) +, gentisate (1 mM) +, Sodium hydrosulfite 40.00 mM, pH 4.0, SID 90538): 94.6% | 6555 Remain (%) (ascorbate (2.5 mM) +, gentisate (1 mM) +, Sodium sulfite 2.5 mM, pH 4.5, SID 90616): 67.9%
